Experimental data from US20250281464A1, “TREATMENT OF PATHOGENIC NEISSERIA SP. INFECTION WITH TRIAZOLE ANTIFUNGAL AGENTS” (Virginia Tech Intellectual Properties, Inc., priority 2022, published 2025).
Values after ≈ are worked out from the molar mass of the structure shown. Read-outs that look alike come from different tables or passages of the source.

What was measured:
[1] = test system: commensal vaginal lactobacilli strains; assay: MIC against all commensal vaginal Lactobacillus strains tested; type: cell-based, Lactobacillus spp.
Excerpt: (§1) N. gonorrhoeae pathogenesis greatly depends on colonization of the reproductive tract. One of the natural barriers of such colonization is an intact healthy microbiome. Species of lactobacilli present in the genitourinary tract play a significant role in hindering colonization by Neisseria(1).
(§2) A healthy vaginal microbiome that is dominated by Lactobacillus spp. is less susceptible to N. gonorrhoeae infection and other sexually transmitted diseases (STDs). […] We tested the activity of azoles against important members of healthy vaginal microbiota that inhibit N. gonorrhoeae colonization.

L. jensenii = assay: MIC against commensal vaginal Lactobacillus strains; type: cell-based, Lactobacillus jensenii; details: for MIC Range: Table 6, L. jensenii (7 strains); for MIC: Lactobacillus jensenii
Excerpt: as §1, §2

N. gonorrhoeae isolates = assay: MIC against panel of N. gonorrhoeae clinical isolates; type: cell-based, Neisseria gonorrhoeae
L. crispatus = assay: MIC against commensal vaginal Lactobacillus strains; type: cell-based, Lactobacillus crispatus; details: for MIC Range: Table 6, L. crispatus (3 strains); for MIC: Lactobacillus crispatus
Excerpt: as §1, §2

L. gasseri = assay: as above; type: cell-based, Lactobacillus gasseri; details: for MIC Range: Table 6, L. gasseri (4 strains); for MIC: Lactobacillus gasseri
Excerpt: as §1, §2

L. johnsonii = assay: as above; type: cell-based, Lactobacillus johnsonii; details: for MIC Range: Table 6, L. johsonii (2 strains)
Excerpt: as §1, §2

Escherichia coli = assay: MIC against normal gut microbiota; type: cell-based; details: Escherichia coli (1 strain)
Excerpt: (§3) Disrupting the intestinal microbiota using broad-spectrum antimicrobial therapy increases the susceptibility of hosts to C. difficile colonization.

Lactobacillus rhamnosus = assay: MIC against normal gut microbiota; type: cell-based; details: Lactobacillus rhamnosus (1 strain)
Excerpt: as §3

[2] = MIC against normal gut microbiota; type: cell-based
Excerpt: as §3

Staphylococcus aureus = assay: MIC against normal gut microbiota; type: cell-based; details: Staphylococcus aureus (1 strain)
Excerpt: as §3

Bacteroides dorei = assay: MIC against normal gut microbiota; type: cell-based; details: Bacteroides dorei (2 strains)
Excerpt: as §3

Enterococcus faecalis = assay: MIC against normal gut microbiota; type: cell-based; details: Enterococcus faecalis (1 strain)
Excerpt: as §3

Lactobacillus casei = assay: MIC against normal gut microbiota; type: cell-based; details: Lactobacillus casei (1 strain)
Excerpt: as §3

Lactobacillus brevis = assay: MIC against normal gut microbiota; type: cell-based; details: Lactobacillus brevis (1 strain)
Excerpt: as §3

Enterococcus faecium = assay: MIC against normal gut microbiota; type: cell-based; details: Enterococcus faecium (1 strain)
Excerpt: as §3

[3] = test system: Bifidobacterium angulatum; assay: MIC against normal gut microbiota; type: cell-based; details: Bifidobacterium angulatum (1 strain)
Excerpt: as §3

Bacteroides fragilis = assay: MIC against normal gut microbiota; type: cell-based; details: Bacteroides fragilis (4 strains)
Excerpt: as §3

[4] = test system: resistant N. gonorrhoeae isolates; assay: MIC against resistant N. gonorrhoeae isolates by agar dilution; type: cell-based, Neisseria gonorrhoeae
N. flavescens = assay: MIC against Neisseria spp.; type: cell-based; details: N. flavescens (1 strain)
Excerpt: (§4) Intrigued by the specificity and potent activity of azoles against N. gonorrhoeae, we evaluated the extent of the azoles' antibacterial activity against other Neisseria species (Table 8).

N. mucosa = assay: MIC against Neisseria spp.; type: cell-based; details: N. mucosa (1 strain)
Excerpt: as §4

N. lactamica = assay: MIC against Neisseria spp.; type: cell-based; details: N. lactamica (1 strain)
Excerpt: as §4

N. gonorrhoeae = assay: Post-antibiotic effect (PAE) against N. gonorrhoeae; type: cell-based, Neisseria gonorrhoeae; details: 1 h exposure at 10×MIC
Excerpt: Determining the PAE of a new antimicrobial is an important step for dosing and has clinical importance.

[5] = Table 1, 104 N. gonorrhoeae isolates
[6] = Table 3, 103 N. gonorrhoeae isolates with different resistance profiles
[7] = Bacteroides adolescentis (2 strains)
[8] = all species/strains of Lactobacillus tested (Example 2), read-out: MIC
[9] = Neisseria gonorrhoeae, Table 1, 104 N. gonorrhoeae isolates, read-out: MIC50
[10] = Neisseria gonorrhoeae, Table 1, 104 N. gonorrhoeae isolates, read-out: MIC90
[11] = Neisseria gonorrhoeae, Table 3, 103 N. gonorrhoeae isolates with different resistance profiles, read-out: MIC50
[12] = Neisseria gonorrhoeae, Table 3, 103 N. gonorrhoeae isolates with different resistance profiles, read-out: MIC90

In the case of `C[C@@H]1CN2c3c(cc4c(N5C(=O)OC[C@@H]5C)noc4c3F)CC3(C(=O)NC(=O)NC3=O)[C@H]2[C@H](C)O1` [Zoliflodacin], the MIC ([1]; Lactobacillus) is reported as under 1 µg/mL, the “MIC Range” value (L. jensenii) is reported as at most 1 µg/mL and the MIC50 (N. gonorrhoeae isolates; Neisseria gonorrhoeae) is reported as 0.06 µg/mL (≈ 0.123 µM). The MIC90 (N. gonorrhoeae isolates; Neisseria gonorrhoeae) was 0.125 µg/mL (≈ 0.256 µM), the “MIC Range” value (N. gonorrhoeae isolates; [5]) was 0.004 to 0.5 µg/mL and the MIC50 (N. gonorrhoeae isolates; [6]) was 0.06 µg/mL (≈ 0.123 µM). The MIC90 (N. gonorrhoeae isolates; [6]) was 0.125 µg/mL (≈ 0.256 µM), the “MIC Range” value (N. gonorrhoeae isolates; [6]) was 0.004 to 0.25 µg/mL and the “MIC Range” value (L. crispatus) was at most 1 µg/mL. The “MIC Range” value (L. gasseri) was at most 1 µg/mL, the “MIC Range” value (L. johnsonii) was at most 1 µg/mL and the “MIC Range” value (Escherichia coli) was 0.25 µg/mL (≈ 0.513 µM). For the same compound, the “MIC Range” value (Lactobacillus rhamnosus) was 0.125 µg/mL (≈ 0.256 µM), the “MIC Range” value [2, 7] was 1 µg/mL (≈ 2.05 µM) and the “MIC Range” value ([2]; Bacteroides breve (2 strains)) was 4 µg/mL (≈ 8.21 µM). The “MIC Range” value ([2]; Bacteroides longum (2 strains)) was 1 to 2 µg/mL, the “MIC Range” value (Staphylococcus aureus) was 0.125 µg/mL (≈ 0.256 µM) and the “MIC Range” value (Bacteroides dorei) was 0.5 to 1 µg/mL. For the same compound, the “MIC Range” value (Enterococcus faecalis) was 0.5 µg/mL (≈ 1.03 µM), the “MIC Range” value (Lactobacillus casei) was under 0.125 µg/mL and the “MIC Range” value (Lactobacillus brevis) was 1 µg/mL (≈ 2.05 µM). The “MIC Range” value (Enterococcus faecium) was 2 µg/mL (≈ 4.1 µM), the “MIC Range” value [3] was 1 µg/mL (≈ 2.05 µM) and the “MIC Range” value (Bacteroides fragilis) was 2 to 8 µg/mL.

For `O=c1ccc2ncc(=O)n3c2n1C[C@H]3CN1CCC(NCc2cc3c(cn2)OCCC3)CC1` [Gepotidacin], the MIC [1, 8] was under 1 µg/mL, the “MIC Range” value (L. jensenii) was at most 1 µg/mL and the MIC50 (N. gonorrhoeae isolates; [9]) was 0.25 µg/mL (≈ 0.557 µM). It also gave an MIC90 (N. gonorrhoeae isolates; [10]) of 0.5 µg/mL (≈ 1.11 µM), an MIC50 (N. gonorrhoeae isolates; [11]) of 0.5 µg/mL (≈ 1.11 µM) and an MIC90 (N. gonorrhoeae isolates; [12]) of 1 µg/mL (≈ 2.23 µM). The “MIC Range” value (N. gonorrhoeae isolates; [5]) was 0.03 to 8 µg/mL, the “MIC Range” value (N. gonorrhoeae isolates; [6]) was 0.03 to 8 µg/mL and the “MIC Range” value (L. crispatus) was at most 1 µg/mL. For the same compound, the “MIC Range” value (L. gasseri) was at most 1 µg/mL, the “MIC Range” value (L. johnsonii) was at most 1 µg/mL and the “MIC Range” value (Escherichia coli) was 0.125 µg/mL (≈ 0.279 µM). For the same compound, the “MIC Range” value (Lactobacillus rhamnosus) was 0.5 µg/mL (≈ 1.11 µM), the “MIC Range” value [2, 7] was under 0.125 µg/mL and the “MIC Range” value ([2]; Bacteroides breve (2 strains)) was under 0.125 µg/mL. The “MIC Range” value ([2]; Bacteroides longum (2 strains)) was 0.5 µg/mL (≈ 1.11 µM), the “MIC Range” value (Staphylococcus aureus) was 0.25 µg/mL (≈ 0.557 µM) and the “MIC Range” value (Bacteroides dorei) was 0.125 µg/mL (≈ 0.279 µM). For the same compound, the “MIC Range” value (Enterococcus faecalis) was 1 µg/mL (≈ 2.23 µM), the “MIC Range” value (Lactobacillus casei) was 0.25 µg/mL (≈ 0.557 µM) and the “MIC Range” value (Lactobacillus brevis) was 0.5 µg/mL (≈ 1.11 µM). The “MIC Range” value (Enterococcus faecium) was 2 µg/mL (≈ 4.46 µM), the “MIC Range” value [3] was 0.125 µg/mL (≈ 0.279 µM) and the “MIC Range” value (Bacteroides fragilis) was 0.25 to 2 µg/mL.

Compound `CC[C@H]1OC(=O)[C@H](C)[C@@H](O[C@H]2C[C@@](C)(OC)[C@@H](O)[C@H](C)O2)[C@H](C)[C@@H](O[C@@H]2O[C@H](C)C[C@H](N(C)C)[C@H]2O)[C@](C)(O)C[C@@H](C)CN(C)[C@H](C)[C@@H](O)[C@]1(C)O` [Azithromycin] has an MIC [1, 8] of under 1 µg/mL, an MIC ([4]; strain CDC-174, agar dilution) of 1 µg/mL (≈ 1.34 µM) and an MIC ([4]; strain CDC-179, agar dilution) of 8 µg/mL (≈ 10.7 µM). The MIC ([4]; strain CDC-181, agar dilution) was 256 µg/mL (≈ 342 µM), the MIC ([4]; strain WHO-L, agar dilution) was 0.5 µg/mL (≈ 0.668 µM) and the MIC ([4]; strain WHO-X, agar dilution) was 0.5 µg/mL (≈ 0.668 µM). The MIC ([4]; strain WHO-Y, agar dilution) was 1 µg/mL (≈ 1.34 µM), the MIC ([4]; strain WHO-Z, agar dilution) was 1 µg/mL (≈ 1.34 µM) and the MIC (L. jensenii; L. jensenii HM-105) was at most 0.5 µg/mL. It also gave an MIC (L. jensenii; L. jensenii HM-372) of 1 µg/mL (≈ 1.34 µM), an MIC (L. jensenii; L. jensenii HM-374) of 1 µg/mL (≈ 1.34 µM) and an MIC (L. jensenii; L. jensenii HM-639) of 1 µg/mL (≈ 1.34 µM). For the same compound, the MIC (L. jensenii; L. jensenii HM-640) was at most 0.5 µg/mL, the MIC (L. jensenii; L. jensenii HM-645) was 1 µg/mL (≈ 1.34 µM) and the MIC (L. jensenii; L. jensenii HM-646) was 2 µg/mL (≈ 2.67 µM). The “MIC Range” value (L. jensenii) was at most 1 µg/mL, the “MIC Range” value (N. flavescens) was 2 µg/mL (≈ 2.67 µM) and the “MIC Range” value (N. mucosa) was 2 µg/mL (≈ 2.67 µM). The “MIC Range” value (N. lactamica) was 2 µg/mL (≈ 2.67 µM), the MIC50 (N. gonorrhoeae isolates; [9]) was 1 µg/mL (≈ 1.34 µM) and the MIC90 (N. gonorrhoeae isolates; [10]) was 4 µg/mL (≈ 5.34 µM). The MIC50 (N. gonorrhoeae isolates; [11]) was 1 µg/mL (≈ 1.34 µM), the MIC90 (N. gonorrhoeae isolates; [12]) was 4 µg/mL (≈ 5.34 µM) and the “MIC Range” value (N. gonorrhoeae isolates; [5]) was 0.03 to 512 µg/mL. For the same compound, the “MIC Range” value (N. gonorrhoeae isolates; [6]) was 0.03 to 512 µg/mL, the MIC (L. crispatus; L. crispatus HM-103) was 1 µg/mL (≈ 1.34 µM) and the MIC (L. crispatus; L. crispatus HM-371) was 2 µg/mL (≈ 2.67 µM). The MIC (L. crispatus; L. crispatus HM-638) was 1 µg/mL (≈ 1.34 µM), the “MIC Range” value (L. crispatus) was at most 1 µg/mL and the MIC (L. gasseri; L. gasseri HM-407) was at most 0.5 µg/mL. It also gave an MIC (L. gasseri; L. gasseri HM-642) of 2 µg/mL (≈ 2.67 µM), an MIC (L. gasseri; L. gasseri HM-644) of 2 µg/mL (≈ 2.67 µM) and an MIC (L. gasseri; L. gasseri HM-647) of 1 µg/mL (≈ 1.34 µM). The “MIC Range” value (L. gasseri) was at most 1 µg/mL, the MIC (L. johnsonii; Lactobacillus johnsonii, L. johnsonii HM-643) was 2 µg/mL (≈ 2.67 µM) and the “MIC Range” value (L. johnsonii) was at most 1 µg/mL. For the same compound, the PAE (N. gonorrhoeae; strain FA 1090) was 6 h, the PAE (N. gonorrhoeae; strain WHO P) was 8 h and the PAE (N. gonorrhoeae; strain WHO Y) was 4 h. For the same compound, the “MIC Range” value (Escherichia coli) was 2 µg/mL (≈ 2.67 µM), the “MIC Range” value (Lactobacillus rhamnosus) was 1 µg/mL (≈ 1.34 µM) and the “MIC Range” value [2, 7] was 0.015 µg/mL (≈ 0.02 µM). For the same compound, the “MIC Range” value ([2]; Bacteroides breve (2 strains)) was 0.03 to 0.06 µg/mL, the “MIC Range” value ([2]; Bacteroides longum (2 strains)) was 0.25 µg/mL (≈ 0.334 µM) and the “MIC Range” value (Staphylococcus aureus) was 0.25 µg/mL (≈ 0.334 µM). The “MIC Range” value (Bacteroides dorei) was 4 to 16 µg/mL, the “MIC Range” value (Enterococcus faecalis) was 2 µg/mL (≈ 2.67 µM) and the “MIC Range” value (Lactobacillus casei) was 0.5 µg/mL (≈ 0.668 µM). The “MIC Range” value (Lactobacillus brevis) was 1 µg/mL (≈ 1.34 µM), the “MIC Range” value (Enterococcus faecium) was 0.25 µg/mL (≈ 0.334 µM) and the “MIC Range” value [3] was 0.03 µg/mL (≈ 0.0401 µM).
